According to US9133207B2, “Tetrandrine derivatives with substituted 5-carbon, preparation method and use thereof” (Hangzhou Bensheng Pharmaceutical Co., Ltd., priority 2011, dated 2015):
In brackets after ≈: the same amount, converted by molar mass.

Columns and labels:
[1] = test system: H9 (acute lymphoblastic leukemia, ALL); test: Leukemia cell growth inhibition, MTT, 72 h (Example 5); type: cell-based, human; details: Homo sapiens; 72 h, MTT
Summary of the method: (§1)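 Viability read by MTT after 72 h of compound treatment at 37 °C under 5% CO2; each well seeded with 6000 cells in 1640 medium plus 10% fetal bovine serum, compounds at several concentrations.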

[2] = test system: Jurkat (acute lymphoblastic leukemia, ALL); test: as above; type: cell-based, human; details: for IC50 / IC90: Homo sapiens, Jurkat, 72 h, MTT
Summary of the method: as §1

[3] = test system: K562/adr (drug-resistant, chronic myeloid leukemia, CML); test: as above; type: cell-based, human; details: Homo sapiens, K562/Adr; 72 h, MTT
Summary of the method: as §1

[4] = test system: Kasumi-1 (acute myeloid leukemia M2 type, AML-M2); test: as above; type: cell-based, human; details: Homo sapiens, Kasumi 1
Summary of the method: as §1

[5] = test system: NB4 (acute promyelocytic leukemia, AML); test: as above; type: cell-based, human; details: Homo sapiens; 72 h, MTT
Summary of the method: as §1

[6] = test system: RPMI8226 (multiple myeloma); test: Multiple myeloma cell growth inhibition, MTT, 72 h (Example 6); type: cell-based, human; details: Homo sapiens, RPMI-8226; 72 h, MTT, RPMI8226
Summary of the method: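 Viability was read by MTT after 72 h of compound exposure at 37 °C, 5% CO2. Each well held 6000 RPMI8226 cells in 1640 medium containing 10% fetal bovine serum, with derivatives added at various concentrations.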

[7] = test system: CaES-17 (esophageal cancer cell); test: Solid tumor cell growth inhibition, MTT, 72 h (Example 7); type: cell-based, human; details: Homo sapiens, CaEs17; 72 h, MTT, CAES-17
Summary of the method: (§2)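 Each line is plated at 4000 cells per well in high-glucose DMEM supplemented with 10% FBS. After 24 h settling, derivatives at several concentrations are mixed in and cultured 72 h; MTT then gives viable cells, with untreated wells set to 100%.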

[8] = test system: Hep-2 (laryngeal carcinoma); test: as above; type: cell-based, human; details: Homo sapiens; 72 h, MTT, Hep 2
Summary of the method: as §2

MG63 (osteosarcoma) = test: as above; type: cell-based, human; details: Homo sapiens; 72 h, MTT, MG-63
Summary of the method: as §2

[9] = test system: PANC-1 (pancreatic cancer); test: as above; type: cell-based, human; details: Homo sapiens; 72 h, MTT, PANC-1
Summary of the method: as §2

PC-3 (prostate cancer) = test: as above; type: cell-based, human; details: Homo sapiens; 72 h, MTT, PC-3
Summary of the method: as §2

A549 (human lung cancer) = test: as above; type: cell-based; details: Homo sapiens; 72 h, MTT, A549
Summary of the method: as §2

[10] = test system: Becap37 (human breast cancer cell); test: as above; type: cell-based; details: Homo sapiens; 72 h, MTT, Becap-37
Summary of the method: as §2

[11] = test system: CNE (nasopharyngeal carcinoma cell); test: as above; type: cell-based; details: Homo sapiens
Summary of the method: as §2

[12] = test system: Hela (human cervical cancer cell); test: as above; type: cell-based; details: Homo sapiens; 72 h, MTT, Hela
Summary of the method: as §2

[13] = test system: Huh7 (human liver cancer cell); test: as above; type: cell-based; details: Homo sapiens; 72 h, MTT, Huh-7
Summary of the method: as §2

[14] = test system: MGC 803 (human gastric cancer cell); test: as above; type: cell-based; details: Homo sapiens
Summary of the method: as §2

[15] = test system: RKO (human colon adenocarcinoma cell); test: as above; type: cell-based; details: Homo sapiens; 72 h, MTT, RKO
Summary of the method: as §2

[16] = test system: SK-OV-3 (ovarian cancer cell); test: as above; type: cell-based; details: Homo sapiens
Summary of the method: as §2

[17] = test system: U87 MG (malignant glioma cell); test: as above; type: cell-based; details: Homo sapiens, U-87 MG
Summary of the method: as §2

CCN1CCN(Cc2c3c4c(c(OC)c2OC)Oc2cc5c(cc2OC)CCN(C)[C@H]5Cc2ccc(cc2)Oc2cc(ccc2OC)C[C@@H]4N(C)CC3)CC1 [BS-TE-342]
IC50 [1]: 1.11 µg/mL (≈ 1.48 µM) | IC90 [1]: 2.32 µg/mL (≈ 3.1 µM) | IC50 [2]: 0.8 µg/mL (≈ 1.07 µM) | IC90 [2]: 4.05 µg/mL (≈ 5.41 µM) | IC50 [3]: 0.55 µg/mL (≈ 0.734 µM) | IC90 [3]: 2.15 µg/mL (≈ 2.87 µM) | IC50 [4]: 0.75 µg/mL (≈ 1 µM) | IC90 [4]: 3.1 µg/mL (≈ 4.14 µM) | IC50 [5]: 0.6 µg/mL (≈ 0.801 µM) | IC90 [5]: 1.6 µg/mL (≈ 2.14 µM) | IC50 [6]: 0.006 µg/mL (≈ 0.00801 µM) | IC90 [6]: 0.45 µg/mL (≈ 0.601 µM) | IC50 [7]: 2.21 µg/mL (≈ 2.95 µM) | IC90 [7]: 12.4 µg/mL (≈ 16.5 µM) | IC50 [8]: 1.86 µg/mL (≈ 2.48 µM) | IC90 [8]: 7.19 µg/mL (≈ 9.6 µM) | IC50 (MG63 (osteosarcoma)): 0.9 µg/mL (≈ 1.2 µM) | IC90 (MG63 (osteosarcoma)): 1.9 µg/mL (≈ 2.54 µM) | IC50 [9]: 1.92 µg/mL (≈ 2.56 µM) | IC90 [9]: 6.84 µg/mL (≈ 9.13 µM) | IC50 (PC-3 (prostate cancer)): 1.79 µg/mL (≈ 2.39 µM) | IC90 (PC-3 (prostate cancer)): 2.4 µg/mL (≈ 3.2 µM) | IC50 (A549 (human lung cancer)): 3.2 µg/mL (≈ 4.27 µM) | IC90 (A549 (human lung cancer)): 16 µg/mL (≈ 21.4 µM) | IC50 [10]: 1.1 µg/mL (≈ 1.47 µM) | IC90 [10]: 4.5 µg/mL (≈ 6.01 µM) | IC50 [11]: 1.6 µg/mL (≈ 2.14 µM) | IC90 [11]: 3.7 µg/mL (≈ 4.94 µM) | IC50 [12]: 1.69 µg/mL (≈ 2.26 µM) | IC90 [12]: 4.1 µg/mL (≈ 5.47 µM) | IC50 [13]: 1.31 µg/mL (≈ 1.75 µM) | IC90 [13]: 2.46 µg/mL (≈ 3.28 µM) | IC50 [14]: 1.38 µg/mL (≈ 1.84 µM) | IC90 [14]: 6.55 µg/mL (≈ 8.75 µM) | IC50 [15]: 0.69 µg/mL (≈ 0.921 µM) | IC90 [15]: 1.75 µg/mL (≈ 2.34 µM) | IC50 [16]: 2 µg/mL (≈ 2.67 µM) | IC90 [16]: > 16 µg/mL | IC50 [17]: 0.3 µg/mL (≈ 0.401 µM) | IC90 [17]: 1.16 µg/mL (≈ 1.55 µM)

COc1ccc2cc1Oc1ccc(cc1)C[C@H]1c3cc(c(OC)cc3CCN1C)Oc1c(OC)c(OC)c(CN3CCCC(C)C3)c3c1[C@H](C2)N(C)CC3 (stereo partly drawn) [BS-TE-346]
IC50 [1]: 1.01 µg/mL (≈ 1.38 µM) | IC90 [1]: 2.3 µg/mL (≈ 3.13 µM) | IC50 [2]: 0.58 µg/mL (≈ 0.79 µM) | IC90 [2]: 3.79 µg/mL (≈ 5.16 µM) | anti-Jurkat activity increase over tetrandrine ([2]; compared with tetrandrine): ~4 fold | IC50 [3]: 0.31 µg/mL (≈ 0.422 µM) | IC90 [3]: 2.05 µg/mL (≈ 2.79 µM) | IC50 [4]: 0.5 µg/mL (≈ 0.681 µM) | IC90 [4]: 2.68 µg/mL (≈ 3.65 µM) | IC50 [5]: 0.54 µg/mL (≈ 0.736 µM) | IC90 [5]: 1.5 µg/mL (≈ 2.04 µM) | IC50 [6]: 0.02 µg/mL (≈ 0.0272 µM) | IC90 [6]: 0.06 µg/mL (≈ 0.0817 µM) | IC50 [7]: 1.29 µg/mL (≈ 1.76 µM) | IC90 [7]: 7.23 µg/mL (≈ 9.85 µM) | IC50 [8]: 1.79 µg/mL (≈ 2.44 µM) | IC90 [8]: 6.83 µg/mL (≈ 9.31 µM) | IC50 (MG63 (osteosarcoma)): 0.8 µg/mL (≈ 1.09 µM) | IC90 (MG63 (osteosarcoma)): 1.5 µg/mL (≈ 2.04 µM) | IC50 [9]: 2.31 µg/mL (≈ 3.15 µM) | IC90 [9]: 8.26 µg/mL (≈ 11.3 µM) | IC50 (PC-3 (prostate cancer)): 2.92 µg/mL (≈ 3.98 µM) | IC90 (PC-3 (prostate cancer)): 4.9 µg/mL (≈ 6.68 µM) | IC50 (A549 (human lung cancer)): 2.5 µg/mL (≈ 3.41 µM) | IC90 (A549 (human lung cancer)): 8 µg/mL (≈ 10.9 µM) | IC50 [10]: 0.8 µg/mL (≈ 1.09 µM) | IC90 [10]: 2.3 µg/mL (≈ 3.13 µM) | IC50 [11]: 2.5 µg/mL (≈ 3.41 µM) | IC90 [11]: 5.4 µg/mL (≈ 7.36 µM) | IC50 [12]: 1.83 µg/mL (≈ 2.49 µM) | IC90 [12]: 5 µg/mL (≈ 6.81 µM) | IC50 [13]: 1.63 µg/mL (≈ 2.22 µM) | IC90 [13]: 2.49 µg/mL (≈ 3.39 µM) | IC50 [14]: 0.9 µg/mL (≈ 1.23 µM) | IC90 [14]: 4.98 µg/mL (≈ 6.79 µM) | IC50 [15]: 0.73 µg/mL (≈ 0.995 µM) | IC90 [15]: 1.9 µg/mL (≈ 2.59 µM) | IC50 [16]: 3.9 µg/mL (≈ 5.31 µM) | IC90 [16]: > 16 µg/mL | IC50 [17]: 0.19 µg/mL (≈ 0.259 µM) | IC90 [17]: 0.57 µg/mL (≈ 0.777 µM)
